Legend:
[1] = target: Nuclear receptor subfamily 4 group A member 2 (Homo sapiens, UniProt P43354); experiment: Agonist activity at full-length Gal4-fused NOT (unknown origin) expressed in CHO cells by luciferase reporter gene assay; type: cell-based
[2] = Clearance in human hepatocytes assessed per million cells; type: ADME, cell-based, Hepatocyte
hERG = hERG (Homo sapiens, UniProt Q12809); experiment: Inhibition of human ERG at 10 uM
[3] = target: Nuclear receptor subfamily 4 group A member 2 (Mus musculus) (UniProt Q06219); experiment: (§1) Agonist activity at Nurr1 in mouse N2A cells harboring NBRE by luciferase reporter gene assay; type: cell-based
Nuclear receptor subfamily 4 group A member 2 (Mus musculus), sequence (Q06219 whole entry): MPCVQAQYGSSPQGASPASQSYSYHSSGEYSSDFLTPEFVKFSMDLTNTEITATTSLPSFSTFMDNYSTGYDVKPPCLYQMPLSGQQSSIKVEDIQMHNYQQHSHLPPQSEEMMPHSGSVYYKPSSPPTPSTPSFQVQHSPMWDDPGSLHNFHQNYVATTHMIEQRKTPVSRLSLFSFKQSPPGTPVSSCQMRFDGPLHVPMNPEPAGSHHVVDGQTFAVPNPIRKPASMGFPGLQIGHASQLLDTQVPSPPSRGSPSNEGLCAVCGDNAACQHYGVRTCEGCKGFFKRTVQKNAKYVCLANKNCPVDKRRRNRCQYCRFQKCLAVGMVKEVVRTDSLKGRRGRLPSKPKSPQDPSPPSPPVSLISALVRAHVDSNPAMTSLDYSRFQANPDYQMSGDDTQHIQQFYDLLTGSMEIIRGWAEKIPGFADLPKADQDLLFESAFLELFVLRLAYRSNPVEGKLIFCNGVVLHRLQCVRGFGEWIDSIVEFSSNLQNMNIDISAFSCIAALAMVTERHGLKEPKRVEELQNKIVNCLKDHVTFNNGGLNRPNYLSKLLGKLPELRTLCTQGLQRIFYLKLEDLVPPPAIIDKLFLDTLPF

[4] = target: Nuclear receptor subfamily 4 group A member 2 (Mus musculus, UniProt Q06219); experiment: as §1; type: cell-based
Nuclear receptor subfamily 4 group A member 2 (Mus musculus, UniProt Q06219), sequence (Q06219 whole entry): as above

[5] = Drug level in mouse liver microsomes treated with N-phenyl-6-(pyridin-2-yl)imidazo[1,2-a]pyridine-2-carboxamide assessed as metabolite formation; type: ADME, Microsome
[6] = Stability in mouse plasma; type: ADME, cell-free
Cytochrome P450 2C9 = Cytochrome P450 2C9 (Homo sapiens, UniProt P11712); experiment: Inhibition of CYP2C9 (unknown origin); type: ADME
Cytochrome P450 2C9, sequence (P11712 whole entry): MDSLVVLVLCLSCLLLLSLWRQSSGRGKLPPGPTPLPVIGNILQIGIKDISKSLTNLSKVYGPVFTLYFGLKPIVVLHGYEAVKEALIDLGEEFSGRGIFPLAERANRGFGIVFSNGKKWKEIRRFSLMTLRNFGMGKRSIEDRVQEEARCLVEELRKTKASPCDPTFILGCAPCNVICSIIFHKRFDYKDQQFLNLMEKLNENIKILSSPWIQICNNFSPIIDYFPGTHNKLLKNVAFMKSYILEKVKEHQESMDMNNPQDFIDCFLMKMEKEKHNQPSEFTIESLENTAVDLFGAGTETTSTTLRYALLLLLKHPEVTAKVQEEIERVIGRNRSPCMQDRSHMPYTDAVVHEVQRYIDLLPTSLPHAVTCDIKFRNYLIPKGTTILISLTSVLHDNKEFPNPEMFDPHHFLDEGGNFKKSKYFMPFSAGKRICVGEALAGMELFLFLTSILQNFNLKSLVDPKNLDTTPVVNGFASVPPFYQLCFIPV

[7] = Lipophilicity, log D of the compound; type: physicochemical; conditions: octanol/water
Cytochrome P450 3A4 = Cytochrome P450 3A4 (Homo sapiens, UniProt P08684); experiment: Inhibition of CYP3A4 (unknown origin); type: ADME
Cytochrome P450 3A4, sequence (P08684 whole entry): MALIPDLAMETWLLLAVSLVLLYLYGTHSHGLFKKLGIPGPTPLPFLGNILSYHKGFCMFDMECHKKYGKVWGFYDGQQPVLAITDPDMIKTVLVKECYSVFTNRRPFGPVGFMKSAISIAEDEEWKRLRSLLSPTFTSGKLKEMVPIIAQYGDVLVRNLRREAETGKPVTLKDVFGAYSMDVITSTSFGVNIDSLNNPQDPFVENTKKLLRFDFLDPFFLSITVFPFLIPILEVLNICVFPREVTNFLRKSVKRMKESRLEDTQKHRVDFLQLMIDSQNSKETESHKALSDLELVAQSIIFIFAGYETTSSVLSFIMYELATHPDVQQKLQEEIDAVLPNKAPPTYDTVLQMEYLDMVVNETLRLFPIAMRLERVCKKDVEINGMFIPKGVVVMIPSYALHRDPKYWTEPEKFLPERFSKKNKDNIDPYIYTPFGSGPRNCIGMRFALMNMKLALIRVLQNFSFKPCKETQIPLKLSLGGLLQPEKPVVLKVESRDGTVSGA

[8] = Drug metabolism in human liver microsomes; type: ADME, Microsome; conditions: read-out: Drug metabolism
[9] = target: Nuclear receptor subfamily 4 group A member 2 (Rattus norvegicus) (UniProt Q07917); experiment: Agonist activity at Nurr1 in rat mesencephalic primary neurons assessed as increase in tyrosine hydroxylase expression at 3 uM
Nuclear receptor subfamily 4 group A member 2 (Rattus norvegicus), sequence (Q07917 whole entry): as the sequence (Q06219 whole entry) above, with S134G, P182R counted along it

[10] = Dissociation constant, pKa of the compound; type: physicochemical
[11] = Genotoxicity in Salmonella typhimurium by Ames test; type: toxicity; conditions: salmonella enterica subsp. enterica serovar typhimurium
[12] = Stability in human plasma; type: ADME, cell-free
[13] = Apparent permeability in human Caco2 cells; type: ADME, cell-based; conditions: caco-2
Cytochrome P450 2D6 = Cytochrome P450 2D6 (Homo sapiens, UniProt P10635); experiment: Inhibition of CYP2D6 (unknown origin); type: ADME
Cytochrome P450 2D6, sequence (P10635 whole entry): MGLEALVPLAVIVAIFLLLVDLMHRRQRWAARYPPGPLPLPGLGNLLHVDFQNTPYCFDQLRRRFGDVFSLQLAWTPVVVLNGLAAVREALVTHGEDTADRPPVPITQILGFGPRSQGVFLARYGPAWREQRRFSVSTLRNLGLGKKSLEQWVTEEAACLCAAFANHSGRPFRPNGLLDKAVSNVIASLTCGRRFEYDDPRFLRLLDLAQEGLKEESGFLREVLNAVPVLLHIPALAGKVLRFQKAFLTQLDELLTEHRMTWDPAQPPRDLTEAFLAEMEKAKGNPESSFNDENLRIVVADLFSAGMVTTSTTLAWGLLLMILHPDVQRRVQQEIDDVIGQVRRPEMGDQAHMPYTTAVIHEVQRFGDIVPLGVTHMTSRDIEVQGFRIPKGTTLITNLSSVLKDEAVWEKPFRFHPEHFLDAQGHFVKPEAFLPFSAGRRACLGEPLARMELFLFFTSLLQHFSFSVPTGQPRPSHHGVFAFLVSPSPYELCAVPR

CYP450 = CYP450 (Homo sapiens, UniProt P04798+P05177+P05181+P08684+P10632+P10635+P11509+P11712+P13584+P20813+P20815+P20853+P24462+P24903+P33260+P33261+P51589+P78329+P98187+Q02928+Q08477+Q16678+Q16696+Q5TCH4+Q6VVX0+Q7Z449+Q8TAV3+Q96SQ9+Q9HB55); experiment: Induction of CYP450 (unknown origin); type: ADME, protein assay
[14] = Drug metabolism in mouse liver microsomes assessed as amide hydrolysis by measuring aniline formation; type: ADME, Microsome
[15] = Solubility of the compound by HPLC analysis; type: physicochemical
[16] = target: Voltage-gated inwardly rectifying potassium channel KCNH2 (Homo sapiens, UniProt Q12809); experiment: Activation of human ERG
Voltage-gated inwardly rectifying potassium channel KCNH2, sequence (Q12809 whole entry): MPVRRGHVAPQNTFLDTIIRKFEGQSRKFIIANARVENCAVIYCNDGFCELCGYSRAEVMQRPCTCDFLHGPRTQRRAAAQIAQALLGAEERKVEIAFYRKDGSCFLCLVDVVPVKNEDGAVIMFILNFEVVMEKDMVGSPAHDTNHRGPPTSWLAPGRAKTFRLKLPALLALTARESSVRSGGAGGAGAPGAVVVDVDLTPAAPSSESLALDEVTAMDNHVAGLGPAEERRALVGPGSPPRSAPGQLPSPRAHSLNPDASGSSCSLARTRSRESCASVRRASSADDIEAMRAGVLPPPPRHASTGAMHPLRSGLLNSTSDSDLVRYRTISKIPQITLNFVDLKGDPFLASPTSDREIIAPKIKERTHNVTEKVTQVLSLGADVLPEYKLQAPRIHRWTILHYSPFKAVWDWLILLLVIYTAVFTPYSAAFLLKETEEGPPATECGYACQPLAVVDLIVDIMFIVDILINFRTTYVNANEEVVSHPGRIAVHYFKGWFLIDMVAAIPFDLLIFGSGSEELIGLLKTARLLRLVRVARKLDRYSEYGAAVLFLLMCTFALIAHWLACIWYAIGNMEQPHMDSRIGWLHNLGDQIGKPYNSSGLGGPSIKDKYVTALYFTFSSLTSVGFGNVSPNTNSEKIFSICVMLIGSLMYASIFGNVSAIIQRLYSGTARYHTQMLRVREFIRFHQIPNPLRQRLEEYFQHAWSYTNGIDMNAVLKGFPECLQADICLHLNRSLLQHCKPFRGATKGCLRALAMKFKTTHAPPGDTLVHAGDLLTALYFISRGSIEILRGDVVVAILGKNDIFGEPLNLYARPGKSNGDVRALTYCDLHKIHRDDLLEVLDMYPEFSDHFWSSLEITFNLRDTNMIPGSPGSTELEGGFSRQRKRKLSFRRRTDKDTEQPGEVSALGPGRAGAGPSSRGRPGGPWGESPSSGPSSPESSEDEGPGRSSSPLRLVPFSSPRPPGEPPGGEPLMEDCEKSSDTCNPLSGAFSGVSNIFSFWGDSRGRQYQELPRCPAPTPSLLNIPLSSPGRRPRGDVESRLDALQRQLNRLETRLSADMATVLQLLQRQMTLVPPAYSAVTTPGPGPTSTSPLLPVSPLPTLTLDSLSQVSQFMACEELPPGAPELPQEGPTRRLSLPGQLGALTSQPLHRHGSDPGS

[17] = Drug metabolism in mouse liver microsomes assessed as amide hydrolysis by measuring 6-(pyridin-2-yl)imidazo[1,2-a]pyridine-2-carboxylic acid formation; type: ADME, Microsome
[18] = Drug metabolism in mouse liver microsomes; type: ADME, Microsome; conditions: read-out: Drug metabolism

Nuclear receptor subfamily 4 group A member 2 (Homo sapiens, UniProt P43354), sequence (P43354 whole entry, the tested form may be a part): as the sequence (Q06219 whole entry) above, with S131T, S134G, D354E counted along it
hERG, sequence (Q12809 whole entry): as the sequence (Q12809 whole entry) above

Compound	EC50 ([1]; read-out: EC50)	Emax [3]	further results
OC1(c2cccc(-c3ccc4nc(-c5ccc(Cl)cc5)cn4c3)c2)COC1	323 nM		
Cc1c(CO)cccc1-c1ccc2nc(-c3ccc(Cl)cc3)cn2c1	> 1000 nM		
CCCCCC(O)c1cccc(-c2ccc3nc(-c4ccc(Cl)cc4)cn3c2)c1 (stereo not given)	> 3000 nM		
OCc1c(F)ccc(-c2ccc3nc(-c4ccc(Cl)cc4)cn3c2)c1F	38 nM		CLH [2]: 0.1368 mL/h; inhibition at 10 µM (hERG): 24%
O=C(Nc1cc(F)cc(F)c1)c1cn2cc(-c3ccccn3)ccc2n1	> 1000 nM	85%	EC50 [4]: 2.5 nM
OC(c1ccccc1)c1cccc(-c2ccc3nc(-c4ccc(Cl)cc4)cn3c2)c1 (stereo not given)	> 3000 nM		
O=C(O)c1cn2cc(-c3ccccn3)ccc2n1			Drug metabolism [5]: Metabolite_Detected
COCc1cccc(-c2ccc3nc(-c4ccc(Cl)cc4)cn3c2)c1	> 3000 nM		
CNC(=O)c1cccc(-c2ccc3nc(-c4ccc(Cl)cc4)cn3c2)c1			Emax [1]: 226%
Clc1ccc(-c2cn3cc(-c4cccc(CN5CCOCC5)c4)ccc3n2)cc1	> 3000 nM		
OCc1cccc(-c2ccc3nc(-c4ccc(Cl)cc4)nn3n2)c1			EC50 ([1]; cho): Not Active
O=C(Nc1ccon1)c1cn2cc(-c3ccccn3)ccc2n1	> 1000 nM	62%	EC50 [4]: 20 nM
O=C(Nc1ccccc1)c1cn2cc(-c3ccccn3)ccc2n1	140 nM	204%	Stability [6]: Unstable; IC50 (Cytochrome P450 2C9): 8600 nM; logD [7]: 3.65; IC50 (Cytochrome P450 3A4): > 10000 nM; metabolised [8]: 20%; Emax [1]: 203%; Activity [9]: 174 to 216%; pKa [10]: 3.6; Activity [11]: Non-Toxic; CLH [2]: 0.128 mL/h; Stability [12]: Stable; permeability [13]: Permeable; IC50 (Cytochrome P450 2D6): > 10000 nM; Emax (CYP450): < 20%; Drug metabolism [14]: Metabolite_Detected; solubility [15]: < 1 µM; EC50 [16]: > 10000 nM; Drug metabolism [17]: Metabolite_Detected; metabolised [18]: 21%; EC50 [4]: 1 nM
Cc1ccc(-c2ccc3nc(-c4ccc(Cl)cc4)cn3c2)cc1CO	> 1000 nM		
OCc1cc(-c2ccc3nc(-c4ccc(Cl)cc4)cn3c2)ccc1F	> 1000 nM		
O=C(Nc1ccccn1)c1cn2cc(-c3ccccn3)ccc2n1	> 1000 nM	87%	EC50 [4]: 2 nM
CCCCC(O)c1cccc(-c2ccc3nc(-c4ccc(Cl)cc4)cn3c2)c1 (stereo not given)	> 3000 nM		
OCc1cccc(-c2cn3cc(-c4ccc(Cl)cc4)nc3cn2)c1			EC50 ([1]; cho): Not Active
O=C(Nc1cccc(F)c1F)c1cn2cc(-c3ccccn3)ccc2n1	> 1000 nM	64%	
CC(O)c1cccc(-c2ccc3nc(-c4ccc(Cl)cc4)cn3c2)c1 (single isomer, unassigned; (+))	75 nM		CLH [2]: 0.45 mL/h
NC(=O)c1cccc(-c2ccc3nc(-c4ccc(Cl)cc4)cn3c2)c1			Emax [1]: 210%
N#Cc1cccc(-c2ccc3nc(-c4ccc(Cl)cc4)cn3c2)c1	> 3000 nM		
CCN(CC)C(=O)c1cccc(-c2ccc3nc(-c4ccc(Cl)cc4)cn3c2)c1	> 3000 nM		
CCC(O)c1cccc(-c2ccc3nc(-c4ccc(Cl)cc4)cn3c2)c1 (stereo not given)	> 1000 nM		
CN(C)Cc1cccc(-c2ccc3nc(-c4ccc(Cl)cc4)cn3c2)c1	> 3000 nM		
Clc1ccc(-c2cn3cc(-c4cccc(CN5CCCC5)c4)ccc3n2)cc1	> 3000 nM		

Compound	EC50 ([1]; read-out: EC50)	Emax [3]	further results
CNCc1cccc(-c2ccc3nc(-c4ccc(Cl)cc4)cn3c2)c1	> 3000 nM		
Cc1cccc(-c2ccc3nc(-c4ccc(Cl)cc4)cn3c2)c1	> 3000 nM		
Nc1ccccc1 [ANILINE]			Drug metabolism [5]: Metabolite_Detected
N#Cc1ccccc1NC(=O)c1cn2cc(-c3ccccn3)ccc2n1	> 1000 nM	52%	EC50 [4]: 292 nM
O=C(Nc1cc[nH]n1)c1cn2cc(-c3ccccn3)ccc2n1	> 1000 nM	61%	
O=C(Nc1ccccc1F)c1cn2cc(-c3ccccn3)ccc2n1	> 1000 nM	104%	EC50 [4]: 1 nM
O=C(Nc1ccccc1Cl)c1cn2cc(-c3ccccn3)ccc2n1	> 1000 nM	68%	EC50 [4]: 26.5 nM
OCc1cccc(-c2ccc3nc(-c4ccc(Cl)cc4)cn3n2)c1			EC50 ([1]; cho): Not Active
OCc1cccc(-c2ccc3nc(-c4ccc(Cl)cc4)cn3c2)c1F	14 nM		CLH [2]: 0.188 mL/h
OC(c1cccc(-c2ccc3nc(-c4ccc(Cl)cc4)cn3c2)c1)C1CCCC1 (stereo not given)	> 3000 nM		
O=C(Nc1ccsc1)c1cn2cc(-c3ccccn3)ccc2n1	> 1000 nM	85%	EC50 [4]: 1 nM
OCc1cccc(-c2ccc3cc(-c4ccc(Cl)cc4)cn3c2)c1			EC50 ([1]; cho): Not Active
CC(O)c1cccc(-c2ccc3nc(-c4ccc(Cl)cc4)cn3c2)c1 (racemic)	99 nM		
CC(C)(O)c1c(F)ccc(-c2ccc3nc(-c4ccc(Cl)cc4)cn3c2)c1F	> 1000 nM		inhibition at 10 µM (hERG): 70%
O=C(Nc1cccc(F)c1)c1cn2cc(-c3ccccn3)ccc2n1	> 1000 nM	103%	EC50 [4]: 1 nM
O=C(Nc1cc(F)ccc1F)c1cn2cc(-c3ccccn3)ccc2n1	> 1000 nM	68%	EC50 [4]: 1 nM
OC1(c2cccc(-c3ccc4nc(-c5ccc(Cl)cc5)cn4c3)c2)CCOCC1	> 1000 nM		
CCCCCCC(O)c1cccc(-c2ccc3nc(-c4ccc(Cl)cc4)cn3c2)c1 (stereo not given)	> 3000 nM		
O=C(Nc1cccc(F)n1)c1cn2cc(-c3ccccn3)ccc2n1	25 nM	86%	Emax [1]: 138%; EC50 [4]: 0.6 nM
O=C(Nc1nccs1)c1cn2cc(-c3ccccn3)ccc2n1	> 1000 nM	72%	
O=C(Nc1nncs1)c1cn2cc(-c3ccccn3)ccc2n1	> 1000 nM	70%	EC50 [4]: 67.6 nM
CC(O)c1cccc(-c2ccc3nc(-c4ccc(Cl)cc4)cn3c2)c1 (single isomer, unassigned; (-))	219 nM		
O=C(Nc1cnoc1)c1cn2cc(-c3ccccn3)ccc2n1	> 1000 nM	85%	EC50 [4]: 55 nM
CCC(C)C(O)c1cccc(-c2ccc3nc(-c4ccc(Cl)cc4)cn3c2)c1 (stereo not given)	> 3000 nM		
CC(O)(CO)c1cccc(-c2ccc3nc(-c4ccc(Cl)cc4)cn3c2)c1 (stereo not given)	> 1000 nM		
